Test results taken from ChEMBL document CHEMBL4024706 (Eur J Med Chem, 2017).
Activity calls are given as the source filed them. The rule behind the calls is not given here.

Legend:
[1] = target: T1, Tyrosine-protein kinase BTK (Homo sapiens, UniProt Q06187); test: Inhibition of full length recombinant human N-terminal His tagged […] expressed in baculovirus infected Sf9 insect cells using poly (Glu,Tyr)4:1 as substrate pretreated for 60 mins followed by substrate addition after 1 hr by ADP-Glo luminescence assay
T1 sequence (Q06187 whole entry): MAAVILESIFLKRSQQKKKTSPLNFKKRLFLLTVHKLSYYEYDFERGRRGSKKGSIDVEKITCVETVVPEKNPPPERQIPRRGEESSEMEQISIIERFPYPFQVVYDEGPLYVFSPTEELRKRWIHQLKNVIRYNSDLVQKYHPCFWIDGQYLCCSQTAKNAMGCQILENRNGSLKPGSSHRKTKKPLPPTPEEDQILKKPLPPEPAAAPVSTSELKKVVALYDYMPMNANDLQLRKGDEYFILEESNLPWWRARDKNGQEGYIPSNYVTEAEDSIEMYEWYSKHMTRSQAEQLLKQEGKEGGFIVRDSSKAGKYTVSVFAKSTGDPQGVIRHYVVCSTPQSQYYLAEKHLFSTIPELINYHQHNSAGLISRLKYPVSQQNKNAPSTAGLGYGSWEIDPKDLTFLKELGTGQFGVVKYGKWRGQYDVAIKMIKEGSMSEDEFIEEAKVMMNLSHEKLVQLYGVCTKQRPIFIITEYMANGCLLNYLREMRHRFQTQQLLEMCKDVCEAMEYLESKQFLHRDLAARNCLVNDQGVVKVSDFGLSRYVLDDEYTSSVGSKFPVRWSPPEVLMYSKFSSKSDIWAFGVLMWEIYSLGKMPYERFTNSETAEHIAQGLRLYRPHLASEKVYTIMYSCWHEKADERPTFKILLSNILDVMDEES

[2] = target: T1, Tyrosine-protein kinase BTK; test: Irreversible inhibition of recombinant full length wild-type 3'-FLAG-tagged BTK (unknown origin) expressed in HEK293T cells assessed as reduction in Y223 phosphorylation measured after 4 hrs by Western blot method; format: cell-based
[3] = target: Tyrosine-protein kinase BTK (Homo sapiens, UniProt Q06187, C481S); test: Irreversible inhibition of recombinant full length 3'-FLAG-tagged BTK C481S mutant (unknown origin) expressed in HEK293T cells assessed as reduction in Y223 phosphorylation measured after 4 hrs by Western blot method; format: cell-based
Tyrosine-protein kinase BTK (Homo sapiens, UniProt Q06187, C481S), sequence (Q06187 2-659 C481S limits assumed): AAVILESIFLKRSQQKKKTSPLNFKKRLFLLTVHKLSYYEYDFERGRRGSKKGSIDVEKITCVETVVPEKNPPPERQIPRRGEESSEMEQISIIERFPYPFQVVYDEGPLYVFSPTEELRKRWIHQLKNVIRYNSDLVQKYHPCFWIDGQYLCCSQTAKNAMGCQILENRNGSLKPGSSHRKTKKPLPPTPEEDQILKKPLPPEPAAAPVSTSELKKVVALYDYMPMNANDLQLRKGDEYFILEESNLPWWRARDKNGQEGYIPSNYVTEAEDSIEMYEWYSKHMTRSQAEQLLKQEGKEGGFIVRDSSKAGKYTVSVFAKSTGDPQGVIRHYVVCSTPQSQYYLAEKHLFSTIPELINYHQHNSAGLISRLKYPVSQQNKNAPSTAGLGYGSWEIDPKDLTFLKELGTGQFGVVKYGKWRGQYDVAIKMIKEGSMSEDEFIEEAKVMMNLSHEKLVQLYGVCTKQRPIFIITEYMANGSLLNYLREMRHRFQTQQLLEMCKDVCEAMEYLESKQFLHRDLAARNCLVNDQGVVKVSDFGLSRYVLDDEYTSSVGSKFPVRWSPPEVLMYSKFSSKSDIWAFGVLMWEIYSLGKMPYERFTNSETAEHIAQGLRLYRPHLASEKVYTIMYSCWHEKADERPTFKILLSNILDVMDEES

SU-DHL-2 = test: Growth inhibition of human SU-DHL-2 cells; format: functional; conditions: Homo sapiens, SU-DHL-2
MV4-11 = test: Growth inhibition of human MV411 cells; format: functional; conditions: Homo sapiens, MV4-11
U2932 [4] = test: Growth inhibition of human U2932 cells; format: functional; conditions: Homo sapiens, U2932
Ramos = test: Growth inhibition of human Ramos cells; format: functional; conditions: Homo sapiens, Ramos
OCI-AML-3 = test: Growth inhibition of human OCI-AML3 cells; format: functional; conditions: Homo sapiens, OCI-AML-3
Pfeiffer [5] = test: Growth inhibition of human Pfeiffer cells; format: functional; conditions: Homo sapiens, Pfeiffer
U-937 = test: Growth inhibition of human U937 cells; format: functional; conditions: Homo sapiens, U-937
NB-4 = test: Growth inhibition of human NB4 cells; format: functional; conditions: Homo sapiens, NB-4
SKM-1 = test: Growth inhibition of human SKM1 cells; format: functional; conditions: Homo sapiens, SKM-1
[6] = Growth inhibition of human M07e cells; format: functional; conditions: Homo sapiens, M-07e
Pfeiffer [7] = test: Cell cycle arrest in human Pfeiffer cells assessed as increase in accumulation at G0/G1 phase at 10 uM after 48 hrs by propidium iodide/RNase staining based flow cytometric method; format: functional
U2932 [8] = test: Cell cycle arrest in human U2932 cells assessed as increase in accumulation at G0/G1 phase at 10 uM after 48 hrs by propidium iodide/RNase staining based flow cytometric method; format: functional
[9] = target: T2, Tyrosine-protein kinase JAK3 (Homo sapiens, UniProt P52333); test: Inhibition of recombinant human N-terminal GST-tagged JAK3 (781 to end residues) expressed in baculovirus infected Sf9 insect cells using poly (Glu,Tyr)4:1 as substrate pretreated for 60 mins followed by substrate addition after 1 hr by ADP-Glo luminescence assay
T2 sequence (P52333 whole entry): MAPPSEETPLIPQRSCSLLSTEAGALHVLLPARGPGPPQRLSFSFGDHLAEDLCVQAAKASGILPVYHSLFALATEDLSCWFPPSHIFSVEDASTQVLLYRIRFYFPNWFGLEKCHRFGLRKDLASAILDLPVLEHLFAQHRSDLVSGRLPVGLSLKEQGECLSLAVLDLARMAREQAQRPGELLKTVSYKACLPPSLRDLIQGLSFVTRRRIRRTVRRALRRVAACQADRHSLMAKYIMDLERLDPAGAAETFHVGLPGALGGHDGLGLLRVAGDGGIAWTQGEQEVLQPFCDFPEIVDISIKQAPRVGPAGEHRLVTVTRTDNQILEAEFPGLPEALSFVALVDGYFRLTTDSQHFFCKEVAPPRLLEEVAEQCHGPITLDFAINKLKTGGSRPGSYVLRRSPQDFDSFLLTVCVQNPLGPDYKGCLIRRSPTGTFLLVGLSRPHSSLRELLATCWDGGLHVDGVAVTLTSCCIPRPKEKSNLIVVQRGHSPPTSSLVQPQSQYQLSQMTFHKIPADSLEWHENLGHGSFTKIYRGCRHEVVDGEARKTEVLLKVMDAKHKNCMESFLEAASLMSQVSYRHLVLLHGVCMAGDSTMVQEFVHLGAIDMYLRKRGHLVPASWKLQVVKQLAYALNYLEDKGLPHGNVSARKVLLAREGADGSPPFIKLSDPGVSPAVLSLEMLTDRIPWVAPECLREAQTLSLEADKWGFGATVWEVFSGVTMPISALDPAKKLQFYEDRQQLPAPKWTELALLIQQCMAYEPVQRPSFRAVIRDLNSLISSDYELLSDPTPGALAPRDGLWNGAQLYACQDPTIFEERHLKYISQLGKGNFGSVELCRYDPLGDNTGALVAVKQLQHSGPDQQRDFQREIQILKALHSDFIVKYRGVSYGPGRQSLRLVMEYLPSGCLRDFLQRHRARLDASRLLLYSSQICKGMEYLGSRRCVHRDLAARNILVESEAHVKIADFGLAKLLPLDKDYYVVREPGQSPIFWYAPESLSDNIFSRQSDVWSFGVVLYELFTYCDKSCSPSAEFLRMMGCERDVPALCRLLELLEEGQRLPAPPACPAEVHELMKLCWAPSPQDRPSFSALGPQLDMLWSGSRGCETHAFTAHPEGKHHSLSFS

[10] = target: Epidermal growth factor receptor (Homo sapiens, UniProt P00533); test: Inhibition of recombinant human N-terminal GST-tagged wild-type EGFR (695 to end residues) expressed in baculovirus infected Sf9 insect cells using poly (Glu,Tyr)4:1 as substrate pretreated for 60 mins followed by substrate addition after 1 hr by ADP-Glo luminescence assay
Epidermal growth factor receptor, sequence (P00533 whole entry): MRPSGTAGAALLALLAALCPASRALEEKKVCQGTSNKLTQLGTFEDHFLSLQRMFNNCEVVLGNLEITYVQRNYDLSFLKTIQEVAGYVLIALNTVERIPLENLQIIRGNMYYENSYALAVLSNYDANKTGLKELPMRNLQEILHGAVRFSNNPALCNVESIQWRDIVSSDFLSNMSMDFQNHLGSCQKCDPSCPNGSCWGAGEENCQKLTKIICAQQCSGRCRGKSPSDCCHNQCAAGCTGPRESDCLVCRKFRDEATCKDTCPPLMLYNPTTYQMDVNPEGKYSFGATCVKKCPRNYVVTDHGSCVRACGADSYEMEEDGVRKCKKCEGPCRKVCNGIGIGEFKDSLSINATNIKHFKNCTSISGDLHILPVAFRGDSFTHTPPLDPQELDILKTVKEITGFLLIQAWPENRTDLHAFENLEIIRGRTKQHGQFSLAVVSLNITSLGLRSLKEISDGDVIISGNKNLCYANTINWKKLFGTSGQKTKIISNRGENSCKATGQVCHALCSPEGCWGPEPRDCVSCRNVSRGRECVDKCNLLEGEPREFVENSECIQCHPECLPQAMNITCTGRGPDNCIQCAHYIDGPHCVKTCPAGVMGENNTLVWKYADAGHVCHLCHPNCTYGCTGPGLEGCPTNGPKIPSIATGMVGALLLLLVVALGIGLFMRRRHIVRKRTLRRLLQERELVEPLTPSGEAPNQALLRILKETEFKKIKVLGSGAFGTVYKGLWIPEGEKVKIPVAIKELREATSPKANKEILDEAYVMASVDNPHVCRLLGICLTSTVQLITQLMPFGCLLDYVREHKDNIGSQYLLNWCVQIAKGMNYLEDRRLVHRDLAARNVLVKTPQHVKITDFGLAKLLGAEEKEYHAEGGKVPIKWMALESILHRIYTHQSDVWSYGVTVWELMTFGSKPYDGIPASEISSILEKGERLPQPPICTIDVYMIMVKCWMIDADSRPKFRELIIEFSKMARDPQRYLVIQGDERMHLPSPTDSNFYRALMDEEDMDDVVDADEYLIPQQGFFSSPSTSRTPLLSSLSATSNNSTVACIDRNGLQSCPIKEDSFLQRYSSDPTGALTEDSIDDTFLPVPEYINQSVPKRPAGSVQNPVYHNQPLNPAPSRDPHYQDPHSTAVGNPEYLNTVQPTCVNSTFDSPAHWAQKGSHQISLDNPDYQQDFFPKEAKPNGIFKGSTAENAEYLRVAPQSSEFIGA

[11] = target: T1, Tyrosine-protein kinase BTK; test: Reversible inhibition of full length recombinant human N-terminal His tagged […] expressed in baculovirus infected Sf9 insect cells using poly (Glu,Tyr)4:1 as substrate pretreated for 2 to 60 mins followed by substrate addition after 1 hr by ADP-Glo luminescence assay
PBMC = test: Cytotoxicity against PBMC (unknwon origin); format: cell-based
[12] = AUC (0 to t) in Sprague-Dawley rat at 1 mg/kg, iv by LC-MS/MS method; format: ADME, organism-based; conditions: in vivo
[13] = AUC (0 to t) in Sprague-Dawley rat at 10 mg/kg, po by LC-MS/MS method; format: ADME, organism-based; conditions: in vivo
[14] = AUC (0 to infinity) in Sprague-Dawley rat at 1 mg/kg, iv by LC-MS/MS method; format: ADME, organism-based; parameters: dose 1 mg/kg, route intravenous, time infinity; conditions: in vivo
[15] = AUC (0 to infinity) in Sprague-Dawley rat at 10 mg/kg, po by LC-MS/MS method; format: ADME, organism-based; parameters: dose 10 mg/kg, route oral, time infinity; conditions: in vivo
[16] = MRT (0 to t) in Sprague-Dawley rat at 1 mg/kg, iv by LC-MS/MS method; format: ADME, organism-based; conditions: in vivo
[17] = MRT (0 to t) in Sprague-Dawley rat at 10 mg/kg, po by LC-MS/MS method; format: ADME, organism-based; conditions: in vivo
[18] = Elimination half-life in Sprague-Dawley rat at 1 mg/kg, iv by LC-MS/MS method; format: ADME, organism-based; conditions: in vivo, read-out: beta t1/2 (converted)
[19] = Elimination half-life in Sprague-Dawley rat at 10 mg/kg, po by LC-MS/MS method; format: ADME, organism-based; conditions: in vivo, read-out: beta t1/2 (converted)
[20] = Tmax in Sprague-Dawley rat at 1 mg/kg, iv by LC-MS/MS method; format: ADME, organism-based; conditions: in vivo
[21] = Tmax in Sprague-Dawley rat at 10 mg/kg, po by LC-MS/MS method; format: ADME, organism-based; conditions: in vivo
[22] = Cmax in Sprague-Dawley rat at 1 mg/kg, iv by LC-MS/MS method; format: ADME, organism-based; parameters: dose 1 mg/kg, route intravenous; conditions: in vivo
[23] = Cmax in Sprague-Dawley rat at 10 mg/kg, po by LC-MS/MS method; format: ADME, organism-based; parameters: dose 10 mg/kg, route oral; conditions: in vivo
[24] = Oral bioavailability in Sprague-Dawley rat at 10 mg/kg by LC-MS/MS method; format: ADME, organism-based; conditions: in vivo
[25] = target: T1, Tyrosine-protein kinase BTK

Row | SMILES | IC50 [1] [nM] | GI50 (SU-DHL-2) [nM] | GI50 (MV4-11) [nM] | GI50 (U2932 [4]) [nM] | GI50 (Ramos) [nM] | GI50 (OCI-AML-3) [nM] | GI50 (Pfeiffer [5]) [nM] | GI50 (U-937) [nM] | GI50 (NB-4) [nM] | GI50 (SKM-1) [nM] | GI50 [6] [nM] | IC50 [9] [nM] | IC50 [10] [nM] | Ki [11] [nM] | Activity (PBMC) | AUC(0-t) [12] [ng·h/mL] | AUC(0-t) [13] [ng·h/mL] | AUC(0-inf) [14] [ng·h/mL] | AUC(0-inf) [15] [ng·h/mL] | MRT last [16] [min] | further results
1 | CCC(=O)Nc1cc(Nc2cc(-c3cccc(NC(=O)c4ccc(C(C)(C)C)cc4)c3C)cn(C)c2=O)ccc1C(=O)N1CCOCC1 | 163 | > 10000 | 4800 | > 10000 | 4600 | 9500 | > 10000 | > 10000 | > 10000 | > 10000 | > 10000 |  |  |  |  |  |  |  |  |  | EC50 [2]: > 100 nM; EC50 [3]: > 100 nM; Activity (Pfeiffer [7]): inactive; Activity (U2932 [8]): inactive
2 | C=CC(=O)Nc1cc(Nc2cc(-c3cccc(NC(=O)c4ccc(N(C)C)cc4)c3C)cn(C)c2=O)ccc1C(=O)N1CCOCC1 | 5.8 | 2600 | 1900 | 6900 | 2100 | 2600 | 9000 | 2600 | 1900 | 1000 | 3200 | 2010 | 5880 | 113 | Non-Toxic | 317 | 151 | 317 | 291 | 9.6 | MRT last [17]: 203 min; half-life [18]: 14.4 min; half-life [19]: 472 min; Tmax [20]: 1.02 min; Tmax [21]: 4.98 min; Cmax [22]: 2440 ng/mL; Cmax [23]: 144 ng/mL; bioavailability [24]: 4.76%; Kinact [25]: 0.33 min⁻¹
3 | C=CC(=O)Nc1cc(Nc2cc(-c3cccc(NC(=O)c4cc5c(s4)CCCC5)c3C)cn(C)c2=O)ccc1C(=O)N1CCOCC1 | 16.5 | 1800 | 2200 | 2300 | 1200 | 2300 | 3500 | 1600 | 2400 | 2800 | 2800 | 1030 | 6860 | 6 | Non-Toxic | 1560 | 1790 | 1560 | 1900 | 26.5 | MRT last [17]: 141 min; half-life [18]: 36.5 min; half-life [19]: 232 min; Tmax [20]: 1.02 min; Tmax [21]: 90 min; Cmax [22]: 7620 ng/mL; Cmax [23]: 1120 ng/mL; bioavailability [24]: 11.5%; Kinact [25]: 0.05 min⁻¹
